Measurements published in US20240325554A1, “METHODS FOR TREATING CANCER” (Bicycle Tx Limited, priority 2021, published 2024).
“Also recorded” adds a separate entry of the source. Numbered stars: 1 amine (or outer) side, 2 acyl side, 3 side chain; on linkers, the order of the positions; unused ones are H or OH. Bridge positions count the residues as written; N and C are the ends. Square brackets hold non-standard residues; d marks the D form. I, II: the chains in the order shown. X2 = O=C(CCOCCOCCOCCN(CCOCCOCCOCCn1cc(CCC(=O)[*:2])nn1)CCOCCOCCOCCn1cc(CCC(=O)[*:3])nn1)[*:1]; TATA = O=C(CC[*:1])N1CN(C(=O)CC[*:2])CN(C(=O)CC[*:3])C1; X1 = CC(C)[C@H](N[*:1])C(=O)C[C@@H](CC(N)=O)C(=O)[*:2]; X3 = O=C(CC[*:1])N1CN(C(=O)CC[*:3])CN(C(=O)C[*:2])C1; d1Nal = N[C@H](Cc1cccc2ccccc12)C(=O)O; Hyp = O=C(O)[C@@H]1C[C@@H](O)CN1; hArg = N=C(N)NCCCC[C@H](N)C(=O)O; tBuAla = CC(C)(C)C[C@H](N)C(=O)O; Nle = CCCC[C@H](N)C(=O)O

Tests used:
MC38 tumor tissue [1] = assay: transcriptional (Nanostring) profiling of MC38 tumors, study with BT7455; format: in vivo, huCD137-C57B/6J mice
Protocol: For the transcriptional profiling analyses of the effects of BT7455 in the immune tumor microenvironment, 6-8 week old female huCD137-C57B/6J mice (Biocytogen) mice were implanted subcutaneously with 1×10+E6 MC38 cells. Mice were randomized into treatment groups when average tumor volumes reached around 350 mm^3 to receive vehicle, BT7455, αCD137 antibody (urelumab analogue) or αPD-1 antibody. BT7455 was dosed intravenously at 8 mg/kg (in 25 mM histidine HCl, 10% sucrose, pH7; Vehicle) at 0 h and 24 h and urelumab analogue and αPD-1 antibody were dosed intraperitoneally at 2 mg/kg (urelumab analogue) or 10 mg/kg (αPD-1 antibody) in PBS at 0 h. Tumors from vehicle, BT7455, urelumab analogue and αPD-1 antibody-treated mice were harvested at 24 h, 48 h and 144 h after treatment initiation. RNA was isolated from tumor tissues using RNAeasy kit (Qiagen) and transcriptional analysis was performed using nCounter Mouse PanCancer IO 360 panel (Nanostring) from 100 ng RNA/tumor. Data were analyzed using the nSolver Analysis Software with advanced analysis probe set ns_mm_io_360 v1.0 (Nanostring).

MC38 tumor [2] = assay: MC38 tumor model in mice (BCY13272); format: in vivo
MC38 tumor [3] = assay: efficacy study BCY12491 and Pembrolizumab combination, MC38 tumor growth; format: in vivo, huCD137/huPD-1-C57B/6J mice
Protocol: For tumor growth analysis, 6-8 week old female huCD137/huPD-1-C57B/6J mice (Biocytogen) mice were implanted subcutaneously with 1×10^6 MC38 cells. Mice were randomized into treatment groups when average tumor volumes reached around 92 mm^3 and were treated intravenously with vehicle (25 mM histidine, 10% sucrose, pH7), 5 mg/kg BCY12491 (0, 24 h) or intraperitoneally with 3 mg/kg anti-PD-1 antibody Pembrolizumab or a combination of BCY12491 and Pembrolizumab. Combination treatments were given with three different dosing schedules: BCY12491 and Pembrolizumab treatment initiating at the same time on day 0, BCY12491 treatment initiating on […] and Pembrolizumab treatment initiating on day 5, or Pembrolizumab treatment initiating of day 0 and BCY12491 treatment initiating on day 5. Treatments were given weekly for four doses and tumor growth was monitored by caliper measurements.

CD137 [4] = biological target: T1, CD137 (Homo sapiens, UniProt Q07011); assay: IL-2 and IFN-γ cytokine secretion; format: cell-based
[5] = system: MC38 #13 (MC38 cells engineered to express Nectin-4) tumor tissue; assay: transcriptional (Nanostring) analysis of MC38 #13 tumors, study with BT7480; format: in vivo, huCD137-C57B/6J mice; conditions: 5 mg/kg i.v. 0 h, 24 h
Protocol: For the transcriptional and immunohistochemical (IHC) analyses, 6-8 week old female huCD137-C57B/6J mice (Biocytogen) mice were implanted subcutaneously with 1×10^6 MC38 #13 (MC38 cells engineered to express Nectin-4) cells. Mice were randomized into treatment groups when average tumor volumes reached around 255 mm^3 to receive vehicle, BT7480 (BCY00011863), non-binder BCY control BCY00012797 (BCY12797) or αCD137 antibody (urelumab analogue). BT7480 and its non-binding control were dosed intravenously at 5 mg/kg (in 25 mM histidine HCl, 10% sucrose, pH7; Vehicle) at 0 h and 24 h and urelumab analogue was dosed intraperitoneally at 2 mg/kg in PBS BIW (0 h, 72 h) dose and schedule. Tumors from BT7480-treated mice were harvested at 24 h (after the 0 h dose), 48 h (24 h after the last of 0 h and 24 h dose), 96 h (72 h after the last of 0 h and 24 h dose) and 144 h (120 h after the last of 0 h and 24 h dose). Tumors from αCD137-treated mice were harvested at 144 h after treatment initiation. Tumors from vehicle treated mice were harvested 24 h after the 0 h dose and at 144 h (120 h after the last of 0 h and 24 h dose). RNA was isolated from tumor tissues using RNAeasy kit (Qiagen) and transcriptional analysis was performed using nCounter Mouse PanCancer IO 360 panel (Nanostring) from 100 ng RNA/tumor. Data were analyzed using the nSolver Analysis Software with advanced analysis probe set ns_mm_io_360_v1.0 (Nanostring).

[6] = system: MC38 #13 cells (MC38 cells engineered to overexpress Nectin-4); assay: efficacy study BT7480 with anti-PD-1 and anti-Ctla-4, MC38 #13 tumor growth and survival; format: in vivo, C57BL/6J-huCD137 mice; conditions: i.p. BIW for 2 weeks, 1 mg/kg BT7480, 5 mg/kg antibodies, by day 33
Protocol: For tumor growth analysis, 6-8 week old female C57BL/6J-huCD137− mice (Biocytogen) were implanted subcutaneously with 1×10+e6 MC38 #13 cells (MC38 cells engineered to overexpress Nectin-4). Mice were randomized into treatment groups when average tumor volumes reached around 100 mm^3 and were treated intraperitoneally with vehicle (25 mM histidine, 10% sucrose, pH7), 1 mg/kg BT7480, 5 mg/kg anti-PD-1 (RMP 1-14), 5 mg/kg anti-Ctla-4 (9H10) or BT7480/anti-PD-1 and BT7480/anti-Ctla-4 combinations. Treatments were given twice weekly (BIW) for 2 weeks, and tumor growth was monitored by caliper measurements until day 33 after treatment initiation. Animals with >2000 mm^3 tumors were sacrificed as they had reached the Humane Endpoint.

CD137 [7] = biological target: T1, CD137; assay: CD137 activation; format: cell-based
MC38 tumor tissue [8] = assay: IHC analysis for CD8+ cells in MC38 tumor tissue, study with BCY12491; format: in vivo, huCD137-C57B/6J mice; conditions: Q3D for three doses, Day 6, vs vehicle or non-binder
Protocol: (§1) For the transcriptional and immunohistochemical (IHC) analyses, 6-8 week old female huCD137-C57B/6J mice (Biocytogen) mice were implanted subcutaneously with 1×10^6 MC38 cells. Mice were randomized into treatment groups when average tumor volumes reached around 240 mm^3 and were treated intravenously with vehicle (25 mM histidine, 10% sucrose, pH7), 15 mg/kg BCY12491, 15 mg/kg BCY13626 (non-binding control) or intraperitoneally with 2 mg/kg anti-CD137 antibody urelumab. Treatments were given Q3D for three doses, tumor growth was monitored by caliper measurements and tumor tissues were harvested 1 hour after the last dose on Day 6. Part of the tumor tissue was used for RNA isolation for transcriptional analysis and a part of the tumor tissue was used for formalin-fixed paraffin embedded (FFPE) sample preparation for IHC analysis. RNA was isolated from tumor tissues using RNAeasy kit (Qiagen) and transcriptional analysis was performed using nCounter Mouse PanCancer IO 360 panel (Nanostring) from 100 ng RNA/tumor. Data were analyzed using the nSolver Analysis Software with advanced analysis probe set ns_mm_io_360_v1.0 (Nanostring). CD8+ tumor infiltrating cells were stained in FFPE tissue sections using anti-mouse CD8 antibody (Abcam, #ab217344) and Ventana Discovery OmniMap anti Rabbit-HRP Kit (Ventana #760 4310).

MC38 tumor tissue [9] = assay: transcriptional (Nanostring) analysis of MC38 tumors, profiling study with BCY12491; format: in vivo, huCD137-C57B/6J mice; conditions: Q3D for three doses, Day 6, vs vehicle, 15 mg/kg i.v. peptides, 2 mg/kg i.p. antibody
Protocol: as §1

T1 sequence (Q07011 24-255): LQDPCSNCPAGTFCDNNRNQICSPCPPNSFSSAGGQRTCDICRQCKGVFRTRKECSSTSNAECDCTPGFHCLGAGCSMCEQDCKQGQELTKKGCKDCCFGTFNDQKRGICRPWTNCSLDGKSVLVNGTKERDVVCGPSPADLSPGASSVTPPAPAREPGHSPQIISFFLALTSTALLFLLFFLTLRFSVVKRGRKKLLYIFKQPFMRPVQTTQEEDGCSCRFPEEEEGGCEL

## I: A[hArg]DC[Hyp]L[X1]PLCLEP[d1Nal]WTC-NH2 / II: Ac-C[tBuAla]PE[dK]PYCFADPY[Nle]CA-NH2 / III: Ac-C[tBuAla]PE[dK]PYCFADPY[Nle]CA-NH2 (linker I:4-I:10-I:17, II:1-II:8-II:15 via TATA; linker I:N-II:5-III:5 via X2; linker III:1-III:8-III:15 via X3) [BT7455]
MC38 tumor tissue [1]; 8 mg/kg i.v. 0 h, 24 h
  mRNAs for immune checkpoints (Ctla4, Pdcd1, Cd274, Lag3, Havcr2, Pdcd1lg2, Tigit): increase in several immune checkpoint mRNAs; also recorded: significant increase
MC38 tumor tissue [1]; 8 mg/kg i.v., 24-48 hour timepoint
  mRNA for T cell chemotactic chemokines/cytokines such as Ccl1, Ccl17 and Ccl24: significant early (24-48 hour timepoint) increase
MC38 tumor tissue [1]; 8 mg/kg i.v., vs vehicle or anti-PD-1 or anti-CD137 treated mice
  cytotoxic cell score in tumor tissue: significant increase
MC38 tumor tissue [1]; 48 h after treatment initiation, 8 mg/kg BT7455, 10 mg/kg anti-PD-1, 2 mg/kg urelumab analogue
  modulation of gene sets (signature scores): significant early (48 hours) modulation of several gene sets
MC38 tumor [2]
  antitumor effect: significant antitumor effect

## Pembrolizumab: anti-PD-1 antibody Pembrolizumab
MC38 tumor [3]; 5 mg/kg BCY12491 QW (0, 24 h), 3 mg/kg Pembrolizumab QW, combination both from day 0, D18, p<0.0001
  anti-tumor activity compared to vehicle control: significantly affected the tumor growth; also recorded: significant anti-tumor activity
MC38 tumor [3]; monotherapy treatment cohorts, 5 mg/kg BCY12491 (0, 24 h) or 3 mg/kg Pembrolizumab weekly
  complete responses: 3/10

## CCCC[C@@H]1NC(=O)[C@H](Cc2ccc(O)cc2)NC(=O)[C@@H]2CCCN2C(=O)[C@H](CC(=O)O)NC(=O)[C@H](C)NC(=O)[C@H](Cc2ccccc2)NC(=O)[C@@H]2CSCCC(=O)N3CN(CN(C3)C(=O)CCSC[C@@H](C(=O)N[C@@H](C)C(N)=O)NC1=O)C(=O)CCSC[C@H](NC(C)=O)C(=O)N[C@@H](CC(C)(C)C)C(=O)N1CCC[C@H]1C(=O)N[C@@H](CCC(=O)O)C(=O)N[C@H](CCCCNC(=O)CCc1cn(CCOCCOCCOCCN(CCOCCOCCOCCC(=O)N[C@H]3CSCCC(=O)N4CN5CN(C4)C(=O)CCSC[C@H](NC(=O)[C@@H](CC(=O)O)NC(=O)[C@H](Cc4cccc6ccccc46)NC(=O)[C@@H]4CCCN4C3=O)C(=O)N[C@@H](CCSC)C(=O)N[C@@H](CCCCNC(=N)N)C(=O)N[C@@H](CC(=O)O)C(=O)N[C@@H](Cc3c[nH]c4ccccc34)C(=O)N[C@@H](CO)C(=O)N[C@@H]([C@@H](C)O)C(=O)N3CCC[C@H]3C(=O)N3C[C@H](O)C[C@H]3C(=O)N[C@@H](Cc3c[nH]c4ccccc34)C(=O)N[C@H](C(N)=O)CSCCC5=O)CCOCCOCCOCCn3cc(CCC(=O)NCCCC[C@H]4NC(=O)[C@H](CCC(=O)O)NC(=O)[C@@H]5CCCN5C(=O)[C@H](CC(C)(C)C)NC(=O)[C@@H](NC(C)=O)CSCCC(=O)N5CN6CN(C5)C(=O)CCSC[C@H](NC(=O)[C@H](Cc5ccc(O)cc5)NC(=O)[C@@H]5CCCN5C4=O)C(=O)N[C@@H](Cc4ccccc4)C(=O)N[C@@H](C)C(=O)N[C@@H](CC(=O)O)C(=O)N4CCC[C@H]4C(=O)N[C@@H](Cc4ccc(O)cc4)C(=O)N[C@@H](CCCC)C(=O)N[C@H](C(=O)N[C@@H](C)C(N)=O)CSCCC6=O)nn3)nn1)C(=O)N1CCC[C@H]1C(=O)N[C@@H](Cc1ccc(O)cc1)C(=O)N2 [BT7480]
CD137 [4]
  IL-2 and IFN-γ cytokine secretion: robust IL-2 and IFN-γ cytokine secretion
[5]
  mRNA for T cell chemotactic chemokines/cytokines such as Ccl1, Ccl17 and Ccl24: significant early (24 hour timepoint) increase
[5]; 5 mg/kg
  mRNAs for immune checkpoints (Ctla4, Pdcd1, Cd274, Lag3, Havcr2, Pdcd1lg2, Tigit): increase in several immune checkpoint mRNAs; also recorded: trend to increase or significant increase
[5]; 144 h vs vehicle at 144 h
  cytotoxic cell score in tumor tissue: significantly increased
[5]; by 48 h vs 24 h vehicle readout
  Macrophage Cell Score in tumor tissue: significant increase
[6]
  rate of complete responses (CRs): 0/8
CD137 [7]
  CD137 activation: strong CD137 activation

## anti-CD137 antibody: anti-CD137 antibody urelumab
MC38 tumor tissue [8]
  infiltration of CD8+ cells in tumors (IHC): Some increase of CD8+ cell infiltration
MC38 tumor tissue [9]
  T cell score in tumor tissue: increased significantly
  cytotoxic cell score in tumor tissue: increased significantly
